In article PMC5441580, “GPR40 partial agonist MK-2305 lower fasting glucose in the Goto Kakizaki rat via suppression of endogenous glucose production” (PLoS ONE, 2017):
Several values for one entry are separate records, joined by “and”; a condition that tells them apart may be missing. Identical values can stand only once.

Experiments:
Rat PPARγ = biological target: T1, Rat PPARγ (Rattus norvegicus, UniProt O88275); experiment: cell-based nuclear receptor profiling (Indigo Biosciences), PPARγ
T1 sequence (O88275 238-505 limits assumed): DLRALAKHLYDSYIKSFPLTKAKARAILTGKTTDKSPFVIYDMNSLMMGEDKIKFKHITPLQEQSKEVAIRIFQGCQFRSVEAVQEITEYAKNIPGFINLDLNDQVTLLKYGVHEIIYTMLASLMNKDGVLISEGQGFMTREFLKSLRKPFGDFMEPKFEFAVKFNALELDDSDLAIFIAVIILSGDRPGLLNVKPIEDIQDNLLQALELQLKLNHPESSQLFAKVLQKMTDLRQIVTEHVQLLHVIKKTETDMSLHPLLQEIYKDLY
Procedure: Rat PPARα, PPARδ, and PPARγ activities were determined by Indigo Biosciences (State College, PA) cell-based nuclear receptor profiling service.

GK rats [1] = experiment: endogenous glucose production in vivo, 2H/13C dual tracer, chronic treatment, GK rats; design: species or system rat; settings: 10 mg/kg, individual animals
Procedure: To evaluate whether MK-2305 treatment produced an effect on EGP in vivo, a ^2H/^13C dual tracer approach was used to calculate EGP and its contributing sources. On the day of the study, GK rats were bled via tail snip, and blood glucose was measured via glucometer. Ambient glucose was measured at 8 A.M. and used to sort animals into treatment groups (n = 8 per group). 0.9% NaCl salinated D2O (Sigma-Aldrich, St. Louis, MO) was administered to all animals via IP injection at dose volume of 20 ml/kg. Animals were then placed in clean cages and food was removed. After a 5 hour fast, blood glucose was measured and animals were dosed PO with MK-2305 at 10 mg/kg (5 ml/kg) or vehicle (0.5% methylcellulose) immediately followed by 50 mg/kg [U-^13C] glucose (Sigma-Aldrich) IP at 5 ml/kg. Blood was collected via tail snip at time points from 60–150 min post treatment to measure blood glucose as well as endogenous (^12C-glucose) and exogenous (^13C-glucose) via GCMS. Following the last tail blood collection, rats were anesthetized with isoflurane and cardiac blood was collected into K2EDTA tubes (Becton, Dickinson and Co., Franklin Lakes, NJ).
The serially collected blood samples were analyzed for ^13C-glucose enrichment using GC-MS analysis. The % ^13C glucose enrichments were then combined with the total glucose readings to calculate the concentration of ^13C-glucose, and these values were modeled with a two-compartment model of whole body glucose metabolism to calculate the average EGP for the period from 0–150 minutes.
Terminal blood samples were analyzed for relative ^2H enrichment in plasma glucose using the monoacetone glucose method. Briefly, samples were extracted with 70% perchloric acid and centrifuged at 25,000 rcf for 10 min at 4°C. The supernatant was collected and the pH was adjusted to 6–8 using KOH. The samples were then lyophilized overnight. To convert plasma glucose to monoacetone glucose (MAG), acetone and concentrated sulfuric acid were added to the lyophilized samples and stirred for 4 hours at room temperature. Water was then added and the pH adjusted to 2.0 with 3M Na2CO3. Samples were stirred moderately for 18 hours at room temperature, the pH was adjusted to 7 with 3M Na2CO3, and the samples were completely dried by speed vacuum concentration. The resulting MAG samples were then extracted in hot ethyl acetate, dried overnight under a stream of N2 gas, purified using Discovery DSC-18 SPE columns (6 ml, 1 g bed weight), and freeze dried. […] The ^2H NMR spectra of the MAG samples were then analyzed using in–house developed Matlab (The Mathworks Inc, Natick, MA) to model the NMR peaks with a Lorentzian line shape, and the results were used to calculate integrals for each of the seven NMR resonances in the MAG spectrum. […]

rat GPR40 (FFAR1) = biological target: T2, rat GPR40 (FFAR1) (Rattus norvegicus, UniProt Q8K3T4); experiment: IP1 functional assay, CHO cells stably expressing rat GPR40; type: cell-based; settings: for Receptor Activation (%): representative curve Fig 1B
T2 construct: expressed in transfected cells
Procedure: CHO Jump-IN cells stably expressing rat GPR40 or HEK293 Jump-IN cells stably expressing rat GPR120 were cultured in DMEM media supplemented with 10% dialyzed FBS, non-essential amino acids, penicillin/streptomycin, 10 μg/ml Blasticidin S HCL and 200 or 100 μg/ml Hygromycin B, respectively (Life Technologies). Cell stocks were maintained and grown in a sub-confluent state using standard cell culture procedures. The day before the experiment, the cells were harvested with non-enzymatic cell dissociation buffer and re-suspended in DMEM supplemented as described above at 0.15 million cells per ml. […] The seeded plates were incubated overnight at 37°C in a humidified environment.
On the day of the experiment, the growth media was removed from the assay plate by centrifugation using a BlueCatBio BlueWasher, protocol #21 “Light Dry” and 10 μl of IP1 stimulation buffer (prepared according to the Cisbio IP-one Tb HTRF kit) is added to each well. Test compounds were dissolved and serially diluted in DMSO as 200X the final assay concentration and 50 nl of the compound dilution was acoustically added to each well of the assay plates. The plates were then incubated for 60 minutes at room temperature and 10 μl of detection buffer (prepared according to the IP-one Tb HTRF kit) is added to each well of the assay plate. The plates were then incubated for one additional hour at room temperature. […] For each assay, a standard curve plate in which IP1 is titrated is also included. […] The % activation is then plotted versus the concentration of test compound and the dose response curve fitted to a standard 4-paramater non-linear regression model using a custom in-house developed software package. Maximal % activation and EC50 are then determined for each test compound.

GK rats [2] = experiment: GK rat chronic efficacy, compound in feed for 20 days; type: in vivo; settings: Day 7, ~6 hrs after food removal; 10mpk; chronic study; individual animals; 10 mg/kg

T2 sequence (Q8K3T4 whole entry): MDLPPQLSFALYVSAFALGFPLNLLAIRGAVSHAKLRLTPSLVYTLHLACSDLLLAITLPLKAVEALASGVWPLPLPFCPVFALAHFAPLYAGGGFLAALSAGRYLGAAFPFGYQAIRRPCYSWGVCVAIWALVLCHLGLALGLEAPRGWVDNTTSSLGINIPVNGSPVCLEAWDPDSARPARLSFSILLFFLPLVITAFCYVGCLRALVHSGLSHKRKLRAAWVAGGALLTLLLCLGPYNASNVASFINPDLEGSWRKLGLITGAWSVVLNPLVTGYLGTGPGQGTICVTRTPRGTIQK

## O=C1NC(=O)C(C2CCOc3cc(Oc4ccc(C(F)(F)F)cc4Cl)ccc32)S1 (stereo not shown) [MK-2305]
Rat PPARγ
  EC50: > 10000 nM
Rat PPARγ; @ 10 μM
  % Activation: 3.1 @ 10 μM % and 3.1%
Rat PPARγ; Dose 0.309 nM
  % Effect: -0.11%
Rat PPARγ; Dose 0.981 nM
  % Effect: -0.11%
Rat PPARγ; Dose 3.11 nM
  % Effect: -0.19%
Rat PPARγ; Dose 9.85 nM
  % Effect: -0.3%
Rat PPARγ; Dose 31.2 nM
  % Effect: -0.25%
Rat PPARγ; Dose 99 nM
  % Effect: -0.14%
Rat PPARγ; Dose 314 nM
  % Effect: -0.37%
Rat PPARγ; Dose 995 nM
  % Effect: -0.13%
Rat PPARγ; Dose 3155 nM
  % Effect: 0.6%
Rat PPARγ; Dose 10000 nM
  % Effect: 3.1%
GK rats [1]
  Glucose Production, GNG Glycerol: 9.192 µmol/kg/min and 6.083 µmol/kg/min and 7.998 µmol/kg/min and 7.217 µmol/kg/min and 7.842 µmol/kg/min and 8.659 µmol/kg/min and 3.467 µmol/kg/min and 8.678 µmol/kg/min
  Glucose Production, GNG TCA: 36.7882 µmol/kg/min and 38.5819 µmol/kg/min and 33.1225 µmol/kg/min and 31.7162 µmol/kg/min and 37.3311 µmol/kg/min and 31.203 µmol/kg/min and 37.9138 µmol/kg/min and 30.2175 µmol/kg/min
  Glucose Production, GNG Total: 45.9798 µmol/kg/min and 44.6651 µmol/kg/min and 41.1202 µmol/kg/min and 38.9333 µmol/kg/min and 45.1729 µmol/kg/min and 39.8625 µmol/kg/min and 41.3808 µmol/kg/min and 38.8959 µmol/kg/min
  Glucose Production, Glycogenolysis: 21.2266 µmol/kg/min and 17.3215 µmol/kg/min and 19.9927 µmol/kg/min and 20.4645 µmol/kg/min and 22.2628 µmol/kg/min and 19.9186 µmol/kg/min and 23.4568 µmol/kg/min and 19.0453 µmol/kg/min
Rat GPR40 (FFAR1)
  selectivity for activation of rat GPR40 vs. GPR120, GPR41, GPR43, PPARα, PPARδ, PPARγ: highly selective
Rat GPR40 (FFAR1); Concentration 2.00E-06 M
  Receptor Activation (%): 154%
Rat GPR40 (FFAR1); Concentration 2.00E-07 M
  Receptor Activation (%): 169%
Rat GPR40 (FFAR1); Concentration 2.00E-08 M
  Receptor Activation (%): 136%
Rat GPR40 (FFAR1); Concentration 2.00E-09 M
  Receptor Activation (%): 35%
Rat GPR40 (FFAR1); Concentration 2.00E-10 M
  Receptor Activation (%): 5.69%
Rat GPR40 (FFAR1); Concentration 6.00E-07 M
  Receptor Activation (%): 163%
Rat GPR40 (FFAR1); Concentration 6.00E-08 M
  Receptor Activation (%): 133%
Rat GPR40 (FFAR1); Concentration 6.00E-09 M
  Receptor Activation (%): 74%
Rat GPR40 (FFAR1); Concentration 6.00E-10 M
  Receptor Activation (%): 16%
Rat GPR40 (FFAR1); Concentration 6.00E-11 M
  Receptor Activation (%): -6%
Rat GPR40 (FFAR1); IP1 accumulation, CHO cells expressing rat GPR40, mean ± SD, N = 29
  EC50: 6 ± 2.9 nM
Rat GPR40 (FFAR1); individual experiments (raw data of Table 1)
  % Activation: 118% and 159% and 181% and 151% and 130% and 184% and 179% and 195% and 135% and 146% and 161% and 144% and 191% and 182% and 204% and 258% and 168% and 171% and 187% and 162% and 170% and 165% and 199% and 155% and 137% and 160% and 91%
Rat GPR40 (FFAR1); maximal activation, percentage of the control response of an in-house partial agonist, mean ± SD
  % Activation: 166% and 166 ± 31^1%
GK rats [2]
  Fasted blood glucose: 134 mg/dl (2×) and 126 mg/dl and 92 mg/dl and 108 mg/dl and 125 mg/dl and 107 mg/dl (2×) and 150 mg/dl
